Patent publication US5045566A, “Novel imidate insecticides” (ICI Americas Inc., priority 1989, dated 1991)

What was measured:
Format in all cases: in vivo
[1] = tested on: Black Bean Aphid [Aphis fabae (Scop.)]; assay: Black bean aphid spray test on nasturtium (BBA), 48 hours; settings: percent of test compound in sprayed solution
In short: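 LC50, given as percent test compound in the sprayed liquid, was calculated from dosage-mortality curves using concentrations from 0.05% downward. Sprays in 50:50 acetone-water went to runoff on ~5 cm nasturtiums carrying 25-50 aphids of mixed ages, one day after infestation. Deaths were counted 48 h later under greenhouse conditions.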

[2] = tested on: Housefly [Musca domestica]; assay: Housefly contact mortality in dishes (HF), 48 hours; settings: μg of test compound per 25 female flies
In short: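 LC50 (μg compound per 25 female flies) derives from dosage-mortality curves of 48 h kill. Flies, females 1-2 days old, were held 25 per cage over a dish coated with dried acetone deposit, starting at 100 μg per cage and descending.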

[3] = tested on: Cabbage Looper [Trichoplusia ni (Hubner)]; assay: Cabbage looper leaf dip (CL), 3-5 days; settings: percent in solution, second-instar larvae
In short: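 Squash cotyledons dipped in test solution (acetone-water 50-50, ≤0.1%), dried, offered to 5 second-instar larvae; mortality after 3-5 days gives LC50.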

[4] = tested on: Maize weevil [Sitophilus zeamais (Motschulsky)]; assay: Maize weevil on dipped corn seeds (MW), 48 hours; settings: percent in solution, adult weevils
In short: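 LC50, given as percent of compound in dipping solution, comes from dosage-mortality curves over concentrations descending from 0.01%. Four corn seeds soaked 2-3 s in 50:50 acetone:water solution were dried and held with 10 adult weevils, about 25° C, mortality read after 48 h.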

[5] = tested on: Tobacco Budworm [Heliothis virescens (Fabricius)] eggs; assay: Tobacco budworm eggs (TBW-E); settings: percent in solution; 2-day old eggs
In short: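 Step 1: dip 2-day old egg patches in acetone test solutions (top concentration 0.1%). Step 2: hold in dishes with rearing medium at 78° F. Step 3: record mortality after control hatch and feeding.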

Row | Compound | LC50 BBA [1] | LC50 HF [2] | LC50 CL [3] | LC50 MW [4] | LC50 TBW E (eggs) [5]
1 | CCOc1ccc(N=C(OCc2cccc(Oc3ccccc3)c2)C(C)C)cc1Cl [Compound 368] | 0.001% | < 100 µg | 0.002% | > 0.01% | 0.04%
2 | CCOc1ccc(N=C(OCc2ccc(F)c(Oc3ccc(Cl)cc3)c2)C(C)C)cc1 [Compound 372] | 0.001% | > 100 µg | > 0.1% | > 0.01% | > 0.1%
3 | CC(C)C(=Nc1ccc(OCC(F)(F)F)c(Cl)c1)OCc1cccc(Oc2ccc(Cl)cc2)c1 [Compound 421] | > 0.05% | > 100 µg | 0.002% | > 0.01% | < 0.1%
4 | CC(C)C(=Nc1ccc(C(F)(F)F)cc1)OCc1cccc(Oc2ccccc2)n1 [Compound 504] | 0.0003% | < 100 µg | 0.00025% | 0.01% | 0.05%
5 | CC(C)C(=Nc1ccc(C#N)cc1)OCc1cccc(Oc2ccc(Cl)cc2)c1 [Compound 393] | > 0.05% | < 100 µg | 0.00037% | > 0.01% | > 0.1%
6 | CC(C)C(=Nc1ccc(F)c(Br)c1)OCc1cccc(Oc2ccc(Cl)cc2)c1 [Compound 398] | 0.002% | < 100 µg | < 0.1% | > 0.01% | < 0.1%
7 | CC(C)C(=Nc1ccc(Cl)c(C(F)(F)F)c1)OCc1ccc(F)c(Oc2ccc(F)cc2)c1 [Compound 340] | 0.001% | 34 µg | 0.00037% | 0.0069% | 0.04%
8 | CC(C)(C)C(=Nc1cccc(C(F)(F)F)c1)OCc1cccc(Oc2ccccc2)c1 [Compound 88] | > 0.05% | > 100 µg | 0.018% | > 0.01% | > 0.1%
9 | CC(C)C(=Nc1ccc(I)c(Cl)c1)OCc1cccc(Oc2ccc(Cl)cc2)n1 [Compound 471] | 0.001% | < 100 µg | 0.00018% | > 0.01% | 0.018%
10 | CC(C)C(=Nc1cccc(C(F)(F)F)c1)OCc1cc(Oc2ccc(Cl)cc2)ccn1 [Compound 509] | > 0.05% | 79 µg | 0.0075% | > 0.01% | > 0.1%
11 | CCOc1ccc(N=C(OCc2cccc(Oc3ccccc3)c2)C(C)C)cc1 [Compound 371] | 0.0004% | < 100 µg | 0.0022% | > 0.01% | > 0.1%
12 | CC(C)C(=Nc1ccc(F)c(I)c1)OCc1cccc(Oc2ccc(Cl)cc2)c1 [Compound 413] | > 0.05% | < 100 µg | 0.0007% | > 0.01% | 0.04%
13 | CC(C)C(=Nc1ccc(OCC(F)(F)F)c(Cl)c1)OCc1cccc(Oc2ccc(F)cc2)c1 [Compound 420] | 0.004% | > 100 µg | 0.00075% | > 0.01% | 0.05%
14 | CCOc1cccc(N=C(OCc2ccc(F)c(Oc3ccc(F)cc3)c2)C(C)C)c1 [Compound 426] | 0.0012% | > 100 µg | 0.002% | > 0.01% | > 0.1%
15 | CCc1ccc(N=C(OCc2cccc(Oc3ccc(F)cc3)c2)C(C)C)cc1Cl [Compound 438] | 0.0003% | > 100 µg | 0.0009% | > 0.01% | < 0.1%
